pIC50: −log10 of the molar value.
Assays:
[1] = molecular target: Non-receptor tyrosine-protein kinase TYK2 (Homo sapiens, UniProt P29597); test: Selectivity interaction (KinomeScan (DiscoverX)) EUB0000229b TYK2; settings: at 10 µM
[2] = molecular target: Serine/threonine-protein kinase 26 (Homo sapiens, UniProt Q9P289); test: Selectivity interaction (Upstate Kinase Profiler service (Millipore)) EUB0000056c STK26; settings: at 1 µM
[3] = molecular target: T1, Lymphokine-activated killer T-cell-originated protein kinase (Homo sapiens) (UniProt Q96KB5); test: Selectivity interaction (ProQinase) EUB0000171b PBK
T1 sequence (whole entry): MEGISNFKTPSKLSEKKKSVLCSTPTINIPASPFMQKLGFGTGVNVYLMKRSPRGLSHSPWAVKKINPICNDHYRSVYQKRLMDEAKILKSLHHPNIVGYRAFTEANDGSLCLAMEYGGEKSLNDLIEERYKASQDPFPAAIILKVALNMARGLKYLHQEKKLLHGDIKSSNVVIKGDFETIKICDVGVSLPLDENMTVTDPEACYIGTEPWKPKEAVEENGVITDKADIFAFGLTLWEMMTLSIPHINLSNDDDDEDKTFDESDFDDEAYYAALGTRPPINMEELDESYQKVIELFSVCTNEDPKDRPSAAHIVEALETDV

[4] = molecular target: Serine/threonine-protein kinase 38 (Homo sapiens) (UniProt Q15208); test: Selectivity interaction (Kinase panel (KiNativ target engagement assay in Jurkat cells)) EUB0001635a STK38; format: cell-based; settings: Selectivity number of off-targets 0.0, Selectivity number of targets 233.0, Source Knowledge https://www.sciencedirect.com/science/article/pii/S2451945619300674?via%3Dihub, at 1 µM
Serine/threonine-protein kinase 38 (Homo sapiens), sequence (Q15208 2-465 limits assumed): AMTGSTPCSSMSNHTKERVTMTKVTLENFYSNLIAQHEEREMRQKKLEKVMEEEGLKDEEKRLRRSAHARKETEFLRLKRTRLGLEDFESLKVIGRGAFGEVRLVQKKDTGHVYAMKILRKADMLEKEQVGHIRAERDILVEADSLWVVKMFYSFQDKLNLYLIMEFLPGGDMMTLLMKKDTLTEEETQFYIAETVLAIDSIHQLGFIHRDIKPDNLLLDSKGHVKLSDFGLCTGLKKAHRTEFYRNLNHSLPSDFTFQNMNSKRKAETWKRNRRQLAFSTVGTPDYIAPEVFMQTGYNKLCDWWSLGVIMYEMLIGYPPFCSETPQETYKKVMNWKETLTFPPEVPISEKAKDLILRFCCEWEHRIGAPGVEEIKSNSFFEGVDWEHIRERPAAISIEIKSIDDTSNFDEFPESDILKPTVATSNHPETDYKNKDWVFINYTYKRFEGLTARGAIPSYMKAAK

Estrogen receptor = Estrogen receptor (Homo sapiens, UniProt P03372); test: Selectivity interaction (Estrogen alpha receptor binding assay, human recombinant ) EUB0000877a ESR1
[5] = molecular target: Type-1 angiotensin II receptor (Homo sapiens, UniProt P30556); test: Selectivity interaction (Angiotensin II AT1 receptor binding assay, human recombinant ) EUB0000877a AGTR1
Type-1 angiotensin II receptor, sequence (P30556 whole entry): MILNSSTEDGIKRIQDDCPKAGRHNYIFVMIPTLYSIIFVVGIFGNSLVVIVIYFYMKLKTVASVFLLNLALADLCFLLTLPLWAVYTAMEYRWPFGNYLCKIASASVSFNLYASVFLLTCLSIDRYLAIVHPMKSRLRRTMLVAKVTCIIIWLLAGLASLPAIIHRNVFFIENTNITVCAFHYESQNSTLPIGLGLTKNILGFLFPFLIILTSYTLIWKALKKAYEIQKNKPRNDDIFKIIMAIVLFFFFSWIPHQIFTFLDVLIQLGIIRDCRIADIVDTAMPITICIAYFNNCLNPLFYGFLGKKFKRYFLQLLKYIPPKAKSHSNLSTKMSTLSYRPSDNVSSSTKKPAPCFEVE

[6] = molecular target: T2, Dual specificity protein kinase TTK (Homo sapiens) (UniProt P33981); test: Selectivity interaction (LanthaScreen Eu Kinase Binding Assay) EUB0001632a TTK; settings: at 10 µM
T2 sequence (whole entry): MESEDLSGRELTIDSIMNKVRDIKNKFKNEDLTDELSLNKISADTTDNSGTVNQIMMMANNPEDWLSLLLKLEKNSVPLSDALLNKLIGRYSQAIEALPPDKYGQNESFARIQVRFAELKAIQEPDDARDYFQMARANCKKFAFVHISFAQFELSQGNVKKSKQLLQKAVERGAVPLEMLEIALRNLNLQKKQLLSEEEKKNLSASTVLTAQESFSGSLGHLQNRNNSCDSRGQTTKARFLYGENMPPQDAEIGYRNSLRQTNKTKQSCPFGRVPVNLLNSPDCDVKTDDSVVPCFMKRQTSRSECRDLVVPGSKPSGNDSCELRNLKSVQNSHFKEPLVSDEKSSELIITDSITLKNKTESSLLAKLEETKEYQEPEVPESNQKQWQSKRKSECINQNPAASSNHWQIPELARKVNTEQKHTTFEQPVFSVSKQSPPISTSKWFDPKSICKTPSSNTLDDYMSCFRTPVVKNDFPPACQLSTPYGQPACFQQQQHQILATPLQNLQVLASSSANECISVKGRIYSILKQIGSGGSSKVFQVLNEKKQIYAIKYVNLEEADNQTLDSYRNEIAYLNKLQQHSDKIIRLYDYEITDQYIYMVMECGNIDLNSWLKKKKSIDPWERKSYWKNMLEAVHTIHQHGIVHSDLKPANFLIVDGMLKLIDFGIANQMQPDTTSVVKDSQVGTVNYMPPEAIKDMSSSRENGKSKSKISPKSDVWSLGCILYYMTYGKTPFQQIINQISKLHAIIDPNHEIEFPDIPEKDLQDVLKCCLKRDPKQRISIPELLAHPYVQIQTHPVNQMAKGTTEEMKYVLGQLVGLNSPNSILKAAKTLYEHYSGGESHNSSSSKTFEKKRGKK

[7] = molecular target: Interferon-induced, double-stranded RNA-activated protein kinase (Homo sapiens) (UniProt P19525); test: Selectivity interaction (ActivX KiNativ screen (kinase selectivity in THP-1 cell lysates)) EUB0000639a EIF2AK2; format: subcellular; settings: lysate, at 5 µM
Interferon-induced, double-stranded RNA-activated protein kinase (Homo sapiens), sequence (P19525 whole entry): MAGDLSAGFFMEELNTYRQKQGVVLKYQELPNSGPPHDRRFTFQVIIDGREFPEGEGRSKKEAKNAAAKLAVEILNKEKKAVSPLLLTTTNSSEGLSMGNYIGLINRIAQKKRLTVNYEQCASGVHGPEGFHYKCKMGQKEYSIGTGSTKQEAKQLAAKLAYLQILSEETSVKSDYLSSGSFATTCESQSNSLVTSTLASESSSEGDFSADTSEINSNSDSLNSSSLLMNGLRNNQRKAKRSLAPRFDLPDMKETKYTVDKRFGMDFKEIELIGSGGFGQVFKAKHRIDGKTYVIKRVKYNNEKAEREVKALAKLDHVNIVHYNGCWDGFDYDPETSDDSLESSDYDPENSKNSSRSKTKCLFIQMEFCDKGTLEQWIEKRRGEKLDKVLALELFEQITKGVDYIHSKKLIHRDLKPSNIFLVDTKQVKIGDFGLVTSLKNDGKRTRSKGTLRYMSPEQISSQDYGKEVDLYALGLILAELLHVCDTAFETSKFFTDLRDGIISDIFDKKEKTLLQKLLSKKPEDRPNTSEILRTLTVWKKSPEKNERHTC

[8] = molecular target: Mitogen-activated protein kinase kinase kinase kinase 4 (Homo sapiens, UniProt O95819); test: Selectivity interaction (KinomeScan (DiscoverX)) EUB0000695a MAP4K4; settings: at 100 nM
Mitogen-activated protein kinase kinase kinase kinase 4, sequence (O95819 2-1239 limits assumed): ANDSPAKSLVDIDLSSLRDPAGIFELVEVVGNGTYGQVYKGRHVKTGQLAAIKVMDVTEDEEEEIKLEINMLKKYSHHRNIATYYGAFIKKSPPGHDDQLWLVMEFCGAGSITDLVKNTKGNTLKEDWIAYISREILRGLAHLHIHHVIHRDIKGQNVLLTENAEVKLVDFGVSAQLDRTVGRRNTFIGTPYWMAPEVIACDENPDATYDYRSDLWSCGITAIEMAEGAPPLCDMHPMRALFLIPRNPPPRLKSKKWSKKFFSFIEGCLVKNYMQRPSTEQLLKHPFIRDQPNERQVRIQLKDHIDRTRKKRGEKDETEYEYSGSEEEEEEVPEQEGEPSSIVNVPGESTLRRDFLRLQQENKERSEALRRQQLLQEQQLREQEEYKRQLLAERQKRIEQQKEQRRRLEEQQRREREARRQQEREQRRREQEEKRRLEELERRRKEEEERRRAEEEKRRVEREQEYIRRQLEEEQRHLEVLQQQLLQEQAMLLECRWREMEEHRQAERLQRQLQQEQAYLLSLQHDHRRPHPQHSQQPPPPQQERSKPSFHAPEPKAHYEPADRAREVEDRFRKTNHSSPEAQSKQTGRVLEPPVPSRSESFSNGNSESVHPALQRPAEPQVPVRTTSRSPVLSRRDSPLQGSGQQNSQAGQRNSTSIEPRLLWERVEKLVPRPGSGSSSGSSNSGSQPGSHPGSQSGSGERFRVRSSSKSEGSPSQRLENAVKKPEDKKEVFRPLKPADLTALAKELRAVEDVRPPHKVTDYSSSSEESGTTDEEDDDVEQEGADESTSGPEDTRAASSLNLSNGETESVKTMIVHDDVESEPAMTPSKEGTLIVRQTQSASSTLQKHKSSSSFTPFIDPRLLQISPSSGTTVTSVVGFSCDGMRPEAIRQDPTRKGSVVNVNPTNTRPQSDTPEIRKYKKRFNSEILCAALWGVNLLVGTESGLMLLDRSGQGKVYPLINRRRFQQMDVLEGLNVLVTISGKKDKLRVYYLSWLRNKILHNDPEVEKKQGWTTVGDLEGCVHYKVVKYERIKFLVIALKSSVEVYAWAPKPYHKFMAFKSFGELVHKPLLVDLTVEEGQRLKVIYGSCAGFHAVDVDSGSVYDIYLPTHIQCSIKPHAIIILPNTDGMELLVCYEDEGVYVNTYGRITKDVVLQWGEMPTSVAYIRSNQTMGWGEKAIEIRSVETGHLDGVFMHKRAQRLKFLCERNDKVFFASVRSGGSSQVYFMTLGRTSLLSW

[9] = molecular target: Hepatocyte growth factor receptor (Homo sapiens, UniProt P08581); test: Selectivity interaction (Kinase panel (literature)) EUB0001199aCl MET; settings: at 1 µM
[10] = molecular target: Dual specificity mitogen-activated protein kinase kinase 1 (Homo sapiens, UniProt Q02750); test: Selectivity interaction (Ambit KINOMEscan and KiNATiv profiling in Jurkat cells) EUB0000090b MAP2K1; format: cell-based; settings: at 1 µM
Dual specificity mitogen-activated protein kinase kinase 1, sequence (Q02750 whole entry): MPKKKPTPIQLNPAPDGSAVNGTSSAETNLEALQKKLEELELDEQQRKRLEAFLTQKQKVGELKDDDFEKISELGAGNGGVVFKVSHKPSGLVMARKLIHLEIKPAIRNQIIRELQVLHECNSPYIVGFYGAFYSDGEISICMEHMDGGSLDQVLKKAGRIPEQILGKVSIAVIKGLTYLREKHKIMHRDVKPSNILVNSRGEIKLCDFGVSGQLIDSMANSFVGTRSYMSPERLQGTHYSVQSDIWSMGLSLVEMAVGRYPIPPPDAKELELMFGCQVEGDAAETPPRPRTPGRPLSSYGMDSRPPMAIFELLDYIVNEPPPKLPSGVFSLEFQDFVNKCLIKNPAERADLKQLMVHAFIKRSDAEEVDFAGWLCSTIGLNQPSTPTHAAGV

[11] = molecular target: T3, Interleukin-1 receptor-associated kinase 4 (Homo sapiens) (UniProt Q9NWZ3); test: Selectivity interaction (ActivX KiNativ screen (ex vivo kinase selectivity in human PBMCs)) EUB0001619a IRAK4; format: cell-based; settings: PBMC, at 1 µM
T3 sequence (whole entry): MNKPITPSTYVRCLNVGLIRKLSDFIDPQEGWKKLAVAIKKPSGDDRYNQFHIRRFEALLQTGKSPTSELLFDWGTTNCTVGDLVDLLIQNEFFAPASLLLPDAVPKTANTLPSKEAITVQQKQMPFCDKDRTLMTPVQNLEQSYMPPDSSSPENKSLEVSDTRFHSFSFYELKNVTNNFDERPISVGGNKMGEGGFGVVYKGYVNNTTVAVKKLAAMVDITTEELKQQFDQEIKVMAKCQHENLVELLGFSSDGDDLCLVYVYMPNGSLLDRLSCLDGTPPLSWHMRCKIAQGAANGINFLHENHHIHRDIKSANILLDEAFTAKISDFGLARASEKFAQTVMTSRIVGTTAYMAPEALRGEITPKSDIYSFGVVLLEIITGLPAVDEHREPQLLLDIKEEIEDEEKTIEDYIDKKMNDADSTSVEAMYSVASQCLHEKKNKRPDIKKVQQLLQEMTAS

Serine/threonine-protein kinase 26, sequence (Q9P289 2-416 limits assumed): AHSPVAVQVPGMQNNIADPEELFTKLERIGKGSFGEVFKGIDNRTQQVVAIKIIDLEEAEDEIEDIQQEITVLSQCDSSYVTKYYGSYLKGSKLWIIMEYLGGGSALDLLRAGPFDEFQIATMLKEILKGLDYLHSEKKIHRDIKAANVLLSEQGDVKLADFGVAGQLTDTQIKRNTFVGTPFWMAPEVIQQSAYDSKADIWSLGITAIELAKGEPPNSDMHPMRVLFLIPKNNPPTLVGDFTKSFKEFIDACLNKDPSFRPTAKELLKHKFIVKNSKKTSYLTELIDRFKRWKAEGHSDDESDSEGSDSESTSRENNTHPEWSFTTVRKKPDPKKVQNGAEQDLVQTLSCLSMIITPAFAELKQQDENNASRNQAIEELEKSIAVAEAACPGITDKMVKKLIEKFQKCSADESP
Non-receptor tyrosine-protein kinase TYK2, sequence (P29597 whole entry): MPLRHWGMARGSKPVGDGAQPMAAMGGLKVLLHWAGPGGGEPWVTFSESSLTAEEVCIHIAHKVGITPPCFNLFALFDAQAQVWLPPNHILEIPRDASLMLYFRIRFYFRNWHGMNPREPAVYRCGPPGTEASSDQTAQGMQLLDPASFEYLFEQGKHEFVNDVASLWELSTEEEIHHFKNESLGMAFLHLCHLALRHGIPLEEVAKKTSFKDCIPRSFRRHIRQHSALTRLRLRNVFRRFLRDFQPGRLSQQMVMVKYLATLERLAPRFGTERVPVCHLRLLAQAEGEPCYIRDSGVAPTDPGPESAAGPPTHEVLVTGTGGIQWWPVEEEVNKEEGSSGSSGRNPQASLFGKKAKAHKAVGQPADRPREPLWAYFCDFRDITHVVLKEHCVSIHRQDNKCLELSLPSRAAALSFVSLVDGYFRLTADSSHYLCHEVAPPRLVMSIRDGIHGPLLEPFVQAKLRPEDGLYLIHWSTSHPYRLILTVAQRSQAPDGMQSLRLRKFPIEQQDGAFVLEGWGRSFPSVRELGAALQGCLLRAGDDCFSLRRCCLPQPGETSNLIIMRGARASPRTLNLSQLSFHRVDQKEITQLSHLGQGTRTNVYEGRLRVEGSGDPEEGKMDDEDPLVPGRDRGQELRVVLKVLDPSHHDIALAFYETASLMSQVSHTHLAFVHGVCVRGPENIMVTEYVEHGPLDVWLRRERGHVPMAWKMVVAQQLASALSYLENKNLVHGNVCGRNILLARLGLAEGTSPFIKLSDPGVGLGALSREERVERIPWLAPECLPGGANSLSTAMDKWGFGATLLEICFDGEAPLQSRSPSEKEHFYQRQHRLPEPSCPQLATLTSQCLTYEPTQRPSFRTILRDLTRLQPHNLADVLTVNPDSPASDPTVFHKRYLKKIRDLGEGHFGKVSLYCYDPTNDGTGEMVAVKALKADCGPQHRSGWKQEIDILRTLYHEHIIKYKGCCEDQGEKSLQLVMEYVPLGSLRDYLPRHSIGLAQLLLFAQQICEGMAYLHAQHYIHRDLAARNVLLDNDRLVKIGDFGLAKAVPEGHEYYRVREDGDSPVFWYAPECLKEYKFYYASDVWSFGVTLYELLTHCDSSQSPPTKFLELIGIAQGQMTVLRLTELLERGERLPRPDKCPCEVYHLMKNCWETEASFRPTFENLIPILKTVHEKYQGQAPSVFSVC

SMILES: COc1cc(N(C)c2ccnc3ccc(C(F)(F)F)cc23)cc(OC)c1OC
- % binding [1]: 99%

SMILES: Cc1ccc(-c2ccc3c(ccc4sc5c(c43)NC[C@@H](C)NC5=O)n2)cn1
- % of inhibition [2]: 15%

SMILES: C=CC(=O)Nc1cccc(C(=O)Nc2ccc(Nc3cc(-c4[nH]c(SC)nc4C)ccn3)cc2)c1
- % of control ([3]; at 1 µM): 141%
- % of control ([3]; at 5 µM): 89%

SMILES: C=CC(=O)Nc1ccc(C(=O)Nc2[nH]nc3c2CN(C(=O)N[C@H](CN(C)C)c2ccccc2)C3(C)C)cc1
- % of engagement [4]: -3.5%

SMILES: CCC(=O)N1CC[C@H](Nc2ncnc3c2CN(c2cnc(OC)c(C(F)(F)F)c2)CC3)C1 [LENIOLISIB]
- pIC50 (Estrogen receptor): < 4.52
- pIC50 [5]: < 4.52

SMILES: Cn1cc(-n2cnc3c(NCc4nc5cc(Cl)c(Cl)cc5[nH]4)nc(N4CCOCC4)nc32)cn1
- % of inhibition [6]: -54.1%

SMILES: CC[C@@H]1[C@H](F)C(=O)N[C@@H]1COc1nccc2cc(C(N)=O)c(OC)cc12 [ZIMLOVISERTIB]
- % of inhibition [7]: 0.6%

SMILES: Cc1cc(F)c(C(=O)Nc2cccc(-c3nncn3C(C)C)n2)cc1-n1cnc(C2CC2)c1
- % of control [8]: 100%

SMILES: CN1Cc2nccc(-c3cn(C)nc3-c3ccc(F)cc3)c2C1=O
- % of inhibition [9]: 10%

SMILES: CN(C)C/C=C/C(=O)Nc1ccc(C(=O)N2CCCC(Nc3ncc(Cl)c(-c4c[nH]c5ccccc45)n3)C2)cc1 (stereo not drawn)
- % of control [10]: 99%

SMILES: N#Cc1cccc(-c2c[nH]c3ncnc(N4CCOCC4)c23)c1
- % of inhibition [11]: 16%
